{
  "source": "patent US20110152218A1",
  "about": "“CRYSTALLINE PHOSPHOLIPID, METHOD FOR ITS PRODUCTION AND USE IN TREATING DAMAGED TISSUE” (priority 2008, published 2011)",
  "key": {"HPMC [1]": {"system": "HPMC", "experiment": "HPMC ATP bioluminescence assay", "assay_type": "cell-based, human", "settings": "72 hours; single well; over the tested concentrations", "method": "The viability of HPMC after stimulation with FCS, phospholipid prepared according to Example 1 (Vibrated and Non-vibrated), lysophosphatidic acid (LPA), DPPC, DPPC/LPA, POPC, Curosurf, egg-PG (EPG) and the three Intralipid™ products was determined using an ATP assay. This assay measures the light emitted during the ATP dependant oxidation of luciferin in order to accurately quantify the ATP concentration.\nAs described in Example 3, primary HPMC are isolated from omental tissue biopsies donated by consenting patients undergoing elective abdominal surgery. Cells are grown to approximately 60% confluence in 96 well plates (Falcon) and used at passage 2. All cells are growth arrested in serum free M199 for 24 hours prior to use.\nAn ATP Bioluminescence Assay Kit CLS II (Roche Diagnostics, Cat No 1 699 695, 11857300) was used. It contains ATP Standard, Luciferase and distilled water. A 10 mM EDTA solution was prepared by dissolving 1.8612 g EDTA (Fischer Scientific, Code D/0650/60, Batch 0447430, Mr-372.24) in 500 ml H2O (or 3.7224 g in 1 litre). A BAC-extract solution was prepared by dissolving 1 g Benzalkonium Chloride (Sigma-Aldrich, Cat:-23, 442-7, Lot S22104-334) in 1 litre of 10 mM EDTA. […]\nTo mix, rotate the bottle carefully. • 2) Make up an ATP standard solution having a base concentration of 1.65 μM ATP. […] Use distilled water as the control. • 4) Set the Fluostar Optima plate reader to measure luminescence. Set the Fluostar Optima plate reader pump to inject 20 μl of luciferase into each of the required wells. • 5) Place the plate into the plate reader and measure the relative light units (RLU). • 6) Prepare a standard curve such as that shown in FIG. 16 by plotting a graph of RLU against ATP concentration.\n96 well plates from the HPMC proliferation study were defrosted. […] The ATP concentrations were calculated from the RLU of the samples using the standard curve. As an alternative to using an ATP standard curve, data can be normalised to the un-stimulated control and expressed as “ATP (% of control)”."}, "[2]": {"system": "human peritoneal mesothelial cell (HPMC)", "experiment": "HPMC proliferation, Alamar Blue and MTT assay", "assay_type": "cell-based", "settings": "48 hours and 72 hours; over the tested concentrations in supplemented M199", "method": "The effect of a phospholipid prepared as described in Example 1 (and/or its constituent compounds) to induce human peritoneal mesothelial cell proliferation was assessed using an Alamar Blue™ assay and an MTT assay.\nThe Alamar Blue™ assay is designed to measure the proliferation of various cell types by measuring the ability of the cells to metabolise and reduce a REDOX indicator (Alamar Blue™). Reduction of the REDOX indicator results in a change in its fluorescent activity. Therefore the fluorescent activity measured is proportional to cell proliferation.\nThe MTT Assay measures the proliferations of various cells and is based on the mitochondrial conversion of tetrazolium salt 3-[4,5-dimethyl-thiazol-2-yl]-2,5-diphenyltetrazium bromide (MTT), into an insoluble formazan salt. The resultant colour change is directly related to the number of viable cells.\nAs described in Morgan L W et al (“Glucose degradation products (GDP) retard re-mesothelialisation independently of D-glucose concentration.” Kidney Int 64:1854-1866, 2003), primary HPMC are isolated from omental tissue biopsies donated by consenting patients undergoing elective abdominal surgery. Cells were grown to approximately 60% confluence in 96 well plates (Falcon) and used at passage 2. All cells were growth arrested in serum free M199 for 24 hours prior to use.\nThe supplemented M199 medium was prepared as follows. Earle's salt medium M199 was supplemented with 100μ/ml penicillin, 100 μg/ml streptomycin, 2 mM glutamine, 5 μg/ml insulin, 5 μg/ml transferrin and 0.4 μg/ml hydrocortisone and 2 mmol/L N-2-hydroxyethylpiperazine-N′-2ethanesulfonic acid.\nThe phospholipid prepared as described in Example 1 was prepared as follows. […]\nThe growth medium was aspirated from each well and then the well was washed once using 200 μl per well of supplemented M199. […] The fluorescent activity of Alamar Blue™ at 540 nm (wavelength) was measured using a Dynex Revalation 96-multiwell plate reader. […]"}, "HPMC [3]": {"system": "HPMC", "experiment": "Alamar Blue assay of HPMC proliferation in various tested media", "assay_type": "cell-based, human", "settings": "50/50 v/v Hartmanns solution and supplemented M199; 48 hours; single well", "method": "The suitability of various media for use in forming a dispersion of phospholipid prepared as described in Example 1 or of DPPC was investigated. The Alamar Blue™ assay of HPMC proliferation described in Example 3 was repeated using a single well of cells for each stimulation with a positive control of FCS dispersed in the tested medium, a negative control of the tested medium, and a phospholipid dispersed in the tested medium. The results obtained after 48 hours are shown in FIGS. 13A-13J and discussed below."}},
  "data": [
    {"smiles": "CCCCCCCCCCCCCCCC(=O)OC[C@H](COP(=O)([O-])OCC[N+](C)(C)C)OC(=O)CCCCCCCCCCCCCCC", "note": "[DPPC, Dipalmitoyl phosphatidyl choline]", "values": [
      {"measurement": "HPMC proliferation by ATP assay (ATP % of control) compared to the negative control", "setting": "HPMC [1]", "result": "no increase of HPMC proliferation"},
      {"measurement": "HPMC proliferation compared to the negative control", "setting": "[2]", "result": "no significant stimulation of HPMC proliferation"},
      {"measurement": "HPMC proliferation response in the first tested medium", "setting": "HPMC [3]", "result": "not as great as DPPC in supplemented M199 by itself"}
    ]}
  ]
}
